Results from publication PMC11945486, “TAS1R2/TAS1R3 Single-Nucleotide Polymorphisms Affect Sweet Taste Receptor Activation by Sweeteners: The SWEET Project” (Nutrients, 2025).

Molecular target: T1, human TAS1R2-A574T (subunit alone) (Homo sapiens, UniProt Q8TE23, A574T)
T1 construct: expressed in transfected cells; host or cells: HEK293T-Gα16gust44
T1 sequence (Q8TE23 20-839 A574T): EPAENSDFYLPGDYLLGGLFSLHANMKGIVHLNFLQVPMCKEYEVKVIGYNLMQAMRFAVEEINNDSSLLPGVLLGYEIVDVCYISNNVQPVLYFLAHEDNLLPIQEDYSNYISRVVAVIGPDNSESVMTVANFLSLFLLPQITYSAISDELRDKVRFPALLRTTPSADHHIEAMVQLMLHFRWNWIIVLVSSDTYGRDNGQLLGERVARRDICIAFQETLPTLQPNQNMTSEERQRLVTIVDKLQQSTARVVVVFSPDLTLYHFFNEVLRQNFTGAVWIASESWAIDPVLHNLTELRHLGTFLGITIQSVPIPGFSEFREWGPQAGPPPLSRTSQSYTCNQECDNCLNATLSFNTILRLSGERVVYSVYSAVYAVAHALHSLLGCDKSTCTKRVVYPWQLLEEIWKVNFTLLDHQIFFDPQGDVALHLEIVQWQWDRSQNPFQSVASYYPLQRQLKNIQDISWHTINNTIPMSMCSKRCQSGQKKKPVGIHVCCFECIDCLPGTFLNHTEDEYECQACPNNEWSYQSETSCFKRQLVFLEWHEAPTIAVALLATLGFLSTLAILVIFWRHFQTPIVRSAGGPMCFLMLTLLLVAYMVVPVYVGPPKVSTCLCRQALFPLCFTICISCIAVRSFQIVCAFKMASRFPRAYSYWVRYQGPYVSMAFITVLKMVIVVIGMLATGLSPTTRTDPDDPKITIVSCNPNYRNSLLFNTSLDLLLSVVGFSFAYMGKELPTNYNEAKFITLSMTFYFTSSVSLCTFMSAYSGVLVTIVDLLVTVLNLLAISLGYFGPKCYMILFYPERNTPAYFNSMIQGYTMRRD
Test: Calcium mobilisation assay, TAS1R2-A574T subunit alone
Type: cell-based
Excerpt: The coding sequences for TAS1R2 and TAS1R3 were commercially synthesised, and the human codon was optimised for expression in human cells. The coding sequences of human TAS1R2 and TAS1R3 were subcloned and inserted into the mammalian expression vectors pcDNA6/myc-HisA and pcDNA4/myc-HisA (Invitrogen; Thermo Fisher Scientific; Illkirch, France) between the EcoRI and NotI restriction sites, generating the plasmids pcDNA6-TAS1R2 and pcDNA4-TAS1R3, respectively. To increase protein expression in mammalian cells, an upstream start codon was used, which was a sequence called MAX, corresponding to the QBI SP163 element also described in pcDNA4-HisMax (Invitrogen; Thermo Fisher Scientific; Illkirch, France). To measure the expression level of the receptor by immunohistochemistry, we used the FLAG sequence ([…]) in the C-terminal position, which encodes the FLAG tag epitope. […]
The HEK293T cells were kindly provided by Jay P. Slack (Givaudan Flavors Corporation; Cincinnati, OH, USA). […] The fluorescence intensity was measured for 90 s (excitation 488 nm, emission 510 nm) in an automated fluorometric FlexStation®3 Multi-Mode microplate reader (Molecular Devices; San Jose, CA, USA). […] The Ca^2+ changes were expressed as fractional changes in fluorescent light intensity: ΔF/F = (F − F0)/F0, where F was the fluorescent light intensity at each point, and F0 was the value of emitted fluorescent light prior to stimulus application. To calculate dose–response relationships, the changes in fluorescence upon stimulus application were averaged, mock-subtracted and baseline-corrected. […] The half-maximal effective concentrations (EC50 values) and maximal signal amplitudes were calculated using SigmaPlot software (version 15.0) (Systat Software; San Jose, CA, USA).
For in vitro calcium mobilisation assay performed on hTAS1R2-SNPs, hTAS1R3-SNPs and mTAS1R3-I60T, 6 to 7 concentrations were tested for each sweet compound, plus buffer alone. All concentration–receptor combinations were measured in duplicate, and each experiment was repeated at least 4 times (8 wells/concentration). […]

What does the source list for `C=C(C)[C@@H]1CC=C(/C=N/O)CC1` [Perillartine, perillartine]?
EC50: 85.3 ± 12.4 µM; R1 = Variant EC50/WT EC50: 0.9; Max ΔF/F0 (maximal signal amplitude): 0.25 ± 0.01
